Reference: US8822500B2, “Tyrosine kinase inhibitors” (Chembridge Corporation, priority 2008, dated 2014)
pIC50: −log10 of the molar value. Where “and” joins values, the source holds several entries; their conditions need not be identical. Equal values may be shown once. Read-outs that look alike come from different tables or passages of the source.

Experiments:
RET = RET (Homo sapiens (Human), UniProt P07949); test: In vitro kinase activity assay (LANCE TR-FRET); type: biochemical; conditions: for IC50: read-out: RET (nM) IC50; for pIC50: read-out: GTx-RET IC50
ALK = ALK (Homo sapiens (Human), UniProt Q9UM73); test: In vitro kinase activity assay (LANCE TR-FRET); type: biochemical; conditions: for IC50: read-out: ALK (nM) IC50; for pIC50: read-out: GTx-ALK IC50;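 for all read-outs here: kinase reactions with ATP and a poly-GT peptide substrate, phosphorylated product read by time-resolved FRET, 11-point curve from 10^−11 to 10^−5 M, DMSO as negative control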
Sequence of ALK (Q9UM73 19-1620): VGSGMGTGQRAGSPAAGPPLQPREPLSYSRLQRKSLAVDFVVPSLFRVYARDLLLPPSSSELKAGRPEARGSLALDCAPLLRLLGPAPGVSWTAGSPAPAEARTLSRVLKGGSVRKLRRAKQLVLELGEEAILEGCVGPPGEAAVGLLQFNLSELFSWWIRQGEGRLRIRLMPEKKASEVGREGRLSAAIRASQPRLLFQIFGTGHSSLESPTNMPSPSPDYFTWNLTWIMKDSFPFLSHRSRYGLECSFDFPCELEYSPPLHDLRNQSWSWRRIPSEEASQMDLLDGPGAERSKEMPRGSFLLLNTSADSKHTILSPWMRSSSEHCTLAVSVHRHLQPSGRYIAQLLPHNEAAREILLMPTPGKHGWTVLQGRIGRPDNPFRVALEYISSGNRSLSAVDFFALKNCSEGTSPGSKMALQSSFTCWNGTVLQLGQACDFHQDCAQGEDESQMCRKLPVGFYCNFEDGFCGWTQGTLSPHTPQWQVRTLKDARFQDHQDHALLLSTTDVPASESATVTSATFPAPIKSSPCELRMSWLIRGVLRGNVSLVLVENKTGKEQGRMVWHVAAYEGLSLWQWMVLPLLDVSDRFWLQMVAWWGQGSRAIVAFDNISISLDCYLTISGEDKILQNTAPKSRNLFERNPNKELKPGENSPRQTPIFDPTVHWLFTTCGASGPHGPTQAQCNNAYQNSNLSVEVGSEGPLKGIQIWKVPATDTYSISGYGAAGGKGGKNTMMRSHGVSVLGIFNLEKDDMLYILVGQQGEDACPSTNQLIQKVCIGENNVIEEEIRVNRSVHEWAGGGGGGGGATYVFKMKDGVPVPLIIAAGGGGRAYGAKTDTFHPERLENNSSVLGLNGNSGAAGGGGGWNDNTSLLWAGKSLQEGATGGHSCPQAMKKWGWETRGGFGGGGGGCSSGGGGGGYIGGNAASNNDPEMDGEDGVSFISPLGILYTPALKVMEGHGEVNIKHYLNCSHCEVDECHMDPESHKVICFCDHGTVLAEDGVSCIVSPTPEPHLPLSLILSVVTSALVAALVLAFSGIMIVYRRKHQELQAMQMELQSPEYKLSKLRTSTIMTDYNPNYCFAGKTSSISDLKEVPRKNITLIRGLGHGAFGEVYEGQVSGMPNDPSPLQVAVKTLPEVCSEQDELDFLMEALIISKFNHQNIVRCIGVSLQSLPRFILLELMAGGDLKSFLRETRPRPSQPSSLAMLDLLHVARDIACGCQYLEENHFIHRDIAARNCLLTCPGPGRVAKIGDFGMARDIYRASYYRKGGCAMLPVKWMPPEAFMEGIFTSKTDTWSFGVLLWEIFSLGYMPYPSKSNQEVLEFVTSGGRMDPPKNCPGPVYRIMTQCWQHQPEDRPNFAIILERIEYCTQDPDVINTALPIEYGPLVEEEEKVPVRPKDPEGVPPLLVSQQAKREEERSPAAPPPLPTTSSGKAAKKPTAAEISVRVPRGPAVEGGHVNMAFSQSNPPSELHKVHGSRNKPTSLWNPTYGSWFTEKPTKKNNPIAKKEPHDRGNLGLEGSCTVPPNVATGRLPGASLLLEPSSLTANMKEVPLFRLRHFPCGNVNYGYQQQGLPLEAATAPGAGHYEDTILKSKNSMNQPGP

ROS = ROS (Homo sapiens (Human), UniProt P08922); test: In vitro kinase activity assay (LANCE TR-FRET); type: biochemical; conditions: for IC50: read-out: ROS (nM) IC50; for pIC50: read-out: GTx-ROS IC50
Sequence of ROS (P08922 28-2347): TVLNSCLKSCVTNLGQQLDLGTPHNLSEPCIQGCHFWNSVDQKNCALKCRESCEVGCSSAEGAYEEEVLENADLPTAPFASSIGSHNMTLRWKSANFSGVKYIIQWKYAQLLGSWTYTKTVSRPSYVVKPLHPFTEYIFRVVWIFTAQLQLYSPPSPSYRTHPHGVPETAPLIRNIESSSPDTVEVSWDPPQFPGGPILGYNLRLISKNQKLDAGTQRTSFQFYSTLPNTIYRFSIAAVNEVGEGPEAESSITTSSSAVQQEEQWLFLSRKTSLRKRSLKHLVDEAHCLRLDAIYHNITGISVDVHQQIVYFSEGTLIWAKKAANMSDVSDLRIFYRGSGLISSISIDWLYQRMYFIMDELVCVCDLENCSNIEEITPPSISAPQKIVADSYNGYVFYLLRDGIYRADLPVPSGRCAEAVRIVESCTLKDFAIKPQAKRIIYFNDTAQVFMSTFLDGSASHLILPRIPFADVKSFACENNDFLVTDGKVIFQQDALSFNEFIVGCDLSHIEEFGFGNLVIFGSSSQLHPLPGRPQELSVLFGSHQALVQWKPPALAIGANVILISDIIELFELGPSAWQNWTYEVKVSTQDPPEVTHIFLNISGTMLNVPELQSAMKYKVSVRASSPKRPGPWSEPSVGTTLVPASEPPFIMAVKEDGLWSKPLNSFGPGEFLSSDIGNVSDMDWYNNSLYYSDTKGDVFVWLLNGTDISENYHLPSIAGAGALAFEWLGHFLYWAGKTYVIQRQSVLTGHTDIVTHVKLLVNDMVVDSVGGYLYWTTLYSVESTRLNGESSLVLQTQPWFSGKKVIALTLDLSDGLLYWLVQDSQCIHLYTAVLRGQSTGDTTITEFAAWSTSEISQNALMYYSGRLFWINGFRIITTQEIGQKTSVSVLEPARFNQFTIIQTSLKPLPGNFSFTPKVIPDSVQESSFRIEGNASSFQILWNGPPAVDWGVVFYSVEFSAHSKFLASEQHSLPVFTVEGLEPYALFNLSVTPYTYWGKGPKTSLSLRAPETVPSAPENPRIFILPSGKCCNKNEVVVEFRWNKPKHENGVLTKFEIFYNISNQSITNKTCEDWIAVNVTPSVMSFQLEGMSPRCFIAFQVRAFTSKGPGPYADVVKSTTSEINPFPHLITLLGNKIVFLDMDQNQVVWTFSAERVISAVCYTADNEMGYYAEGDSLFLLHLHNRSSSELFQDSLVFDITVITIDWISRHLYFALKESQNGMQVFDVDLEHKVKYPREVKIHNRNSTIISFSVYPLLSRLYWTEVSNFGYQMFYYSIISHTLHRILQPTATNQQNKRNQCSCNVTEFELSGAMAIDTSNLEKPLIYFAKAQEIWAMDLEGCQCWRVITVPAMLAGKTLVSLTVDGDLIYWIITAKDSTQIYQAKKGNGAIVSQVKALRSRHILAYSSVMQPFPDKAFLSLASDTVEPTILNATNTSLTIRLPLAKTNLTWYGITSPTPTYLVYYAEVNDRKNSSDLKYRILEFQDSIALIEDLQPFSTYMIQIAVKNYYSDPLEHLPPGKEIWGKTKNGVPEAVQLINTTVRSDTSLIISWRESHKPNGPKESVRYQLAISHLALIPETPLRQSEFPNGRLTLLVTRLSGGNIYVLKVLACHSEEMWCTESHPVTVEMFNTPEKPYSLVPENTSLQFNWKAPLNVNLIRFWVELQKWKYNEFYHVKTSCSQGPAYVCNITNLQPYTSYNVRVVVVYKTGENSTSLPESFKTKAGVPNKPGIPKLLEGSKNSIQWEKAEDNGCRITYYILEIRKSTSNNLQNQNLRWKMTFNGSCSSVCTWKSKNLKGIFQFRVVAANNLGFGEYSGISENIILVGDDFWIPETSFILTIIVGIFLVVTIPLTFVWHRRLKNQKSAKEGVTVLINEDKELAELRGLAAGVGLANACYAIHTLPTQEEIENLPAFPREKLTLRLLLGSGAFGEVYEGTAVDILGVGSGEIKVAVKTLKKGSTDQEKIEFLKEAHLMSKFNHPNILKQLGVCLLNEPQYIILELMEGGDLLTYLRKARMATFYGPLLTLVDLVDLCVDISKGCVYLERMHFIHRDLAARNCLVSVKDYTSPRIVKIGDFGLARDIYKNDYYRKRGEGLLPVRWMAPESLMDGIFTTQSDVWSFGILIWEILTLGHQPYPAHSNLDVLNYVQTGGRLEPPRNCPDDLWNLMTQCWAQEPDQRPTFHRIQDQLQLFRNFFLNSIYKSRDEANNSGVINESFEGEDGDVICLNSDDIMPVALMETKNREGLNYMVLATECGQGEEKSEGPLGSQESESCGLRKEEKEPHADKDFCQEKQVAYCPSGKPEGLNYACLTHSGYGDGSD

TrkA = TrkA (Homo sapiens (Human), UniProt P04629); test: In vitro kinase activity assay (LANCE TR-FRET); type: biochemical; conditions: for IC50: read-out: TrkA (nM) IC50; for pIC50: read-out: GTx-TrKA IC50;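 for all read-outs here: kinase reaction with poly-GT peptide substrate and ATP, phosphorylated product quantified by time-resolved FRET, eleven-point dose curves from 10^−11 to 10^−5 M in triplicate, DMSO as negative control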
Sequence of TrkA (P04629 33-796): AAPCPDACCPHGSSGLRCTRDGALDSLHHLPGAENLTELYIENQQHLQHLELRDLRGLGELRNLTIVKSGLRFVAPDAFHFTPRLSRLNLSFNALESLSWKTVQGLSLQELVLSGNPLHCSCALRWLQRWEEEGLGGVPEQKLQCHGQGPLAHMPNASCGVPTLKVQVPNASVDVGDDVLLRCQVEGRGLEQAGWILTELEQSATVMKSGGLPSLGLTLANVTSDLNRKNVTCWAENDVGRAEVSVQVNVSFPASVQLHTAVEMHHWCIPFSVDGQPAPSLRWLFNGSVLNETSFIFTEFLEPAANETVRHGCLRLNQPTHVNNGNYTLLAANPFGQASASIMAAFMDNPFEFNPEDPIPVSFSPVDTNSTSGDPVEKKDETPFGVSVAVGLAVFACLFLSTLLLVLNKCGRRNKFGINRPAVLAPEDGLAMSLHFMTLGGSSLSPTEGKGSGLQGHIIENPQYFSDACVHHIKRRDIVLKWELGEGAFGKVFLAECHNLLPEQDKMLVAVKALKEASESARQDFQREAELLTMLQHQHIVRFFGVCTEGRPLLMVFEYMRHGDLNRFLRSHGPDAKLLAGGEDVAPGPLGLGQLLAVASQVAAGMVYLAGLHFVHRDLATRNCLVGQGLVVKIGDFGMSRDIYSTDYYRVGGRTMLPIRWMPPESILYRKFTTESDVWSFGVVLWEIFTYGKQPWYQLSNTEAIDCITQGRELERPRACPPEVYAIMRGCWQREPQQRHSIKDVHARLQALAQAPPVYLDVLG

SUDHL-1 lymphoma cells = test: Cellular assay, 3 day cell viability (WST-1); type: cell-based; conditions: Homo sapiens, SU-DHL-1, 72 h; 3 days, WST-1; read-out: GTx-SUDHL-1 IC50
U937 lymphoma cells = test: Cellular assay, 3 day cell viability (WST-1); type: cell-based; conditions: Homo sapiens, U-937, 72 h; 3 days, WST-1; read-out: GTx-U937 IC50
K299 lymphoma cells = test: Cellular assay, 3 day cell viability (WST-1); type: cell-based; conditions: 72 h, 3 days, read-out: GTx-K299 IC50
Caco-2 cells = test: Caco-2 cell permeation study; type: in vitro ADME; conditions: for Papp (10−6 cm/sec) A to B: apical pH 6.5, 2 h; for Papp (10−6 cm/sec) B to A: basolateral pH 7.4, 2 h; for Efflux Ratio: Caco-2;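 for all read-outs here: Caco-2 monolayers grown for 21–28 days with integrity confirmed by TEER, apical buffer HBSS with MES, basolateral buffer HBSS with HEPES, compound levels quantified by LC/MS/MS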
[1] = Caco-2 cell permeation study; type: in vitro ADME; conditions: human; for Papp A→B at 2 h, 10 μM: Caco-2, pH 6.5, 10 μM, apical pH 6.5, 2 h; for efflux ratio at 2 h, 10 μM: Caco-2, Caco-2; for Papp B→A at 2 h, 10 μM: Caco-2, pH 7.4, 10 μM, basolateral pH 7.4, 2 h;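 for all read-outs here: Caco-2 monolayers grown for 21–28 days with integrity confirmed by TEER, apical buffer HBSS with MES, basolateral buffer HBSS with HEPES, compound levels quantified by LC/MS/MS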
in vitro [2] = conditions: rat, microsomes; for half-life at 0.5 μM: pH 7.4; for microsomal CLint at 0.5 μM: pH 7.4, Rat LM-P1 CL (ul/min/mg)
[3] = Metabolic stability, Phase I microsome reactions; type: in vitro ADME, mouse; conditions: 1.0 mg/ml microsomes
in vitro [4] = conditions: human, microsomes; for microsomal CLint at 0.5 μM: pH 7.4, Human LM-P1 CL (ul/min/mg); for half-life at 0.5 μM: pH 7.4, Human LM-P1 Half-life (min)
[5] = biological target: hERG (human ether-a-go-go related gene) potassium channel (Homo sapiens (Human), UniProt Q12809); test: hERG potassium channel current, automated patch clamp (PatchXpress 7000A);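 note: Four-point series of 0.3, 3, 10 and 30 µM, two cells recorded per concentration, 5 min exposure at each level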
[6] = Rat pharmacokinetics / bioavailability; type: in vivo; conditions: for IV_AUC0-1440 Rat 10 mpk: 10 mg/kg I.V.; for PO_AUC0-1440 Rat 10 mpk / bioavailability: 10 mg/kg P.O.; for bioavailability: male, Sprague-Dawley, plasma, po, read-out: Rat F %

Compound | IC50 (RET) | IC50 (ALK) | IC50 (ROS) | IC50 (TrkA) | pIC50 (SUDHL-1 lymphoma cells) | pIC50 (U937 lymphoma cells) | pIC50 (K299 lymphoma cells) | Papp (10−6 cm/sec) A to B (Caco-2 cells; 10 μM) | Papp (10−6 cm/sec) B to A (Caco-2 cells; 10 μM) | Papp A→B at 2 h, 10 μM [1] | half-life at 0.5 μM (in vitro [2]) | microsomal CLint at 0.5 μM (in vitro [2]) | pIC50 (ALK) | pIC50 (TrkA) | microsomal CLint at 0.5 μM (in vitro [4]) | half-life at 0.5 μM (in vitro [4]) | efflux ratio at 2 h, 10 μM [1] | Papp B→A at 2 h, 10 μM [1] | further results
Cc1c2c(cc3[nH]c(-c4c(NC(C)Cc5c(F)c(F)cc(F)c5F)cc[nH]c4=O)nc13)C(=O)N(C1CCN(C)CC1)C2 (stereo not drawn) [Compound 24A, 8-Methyl-6-(1-methylpiperidin-4-yl)-2-(2-oxo-4-(1-(2,3,5,6-tetrafluorophenyl)propan-2-ylamino)-1,2-dihydropyridin-3-yl)-6,7-dihydroimidazo[4,5-f]isoindol-5(3H)-one] | 11.1 nM | 14.6 nM | 2.37 nM | 5.99 nM |  |  |  |  |  |  |  |  |  |  |  |  |  |  | 
C[C@@H](Cc1cc(F)ccc1F)Nc1cc[nH]c(=O)c1-c1nc2cc3c(cc2[nH]1)C(=O)N(C)C3=O [Compound 32, 2-(4-(1-(2,5-Difluorophenyl)propan-2-ylamino)-2-oxo-1,2-dihydropyridin-3-yl)-6-methylimidazo[4,5-f]isoindole-5,7(1H,6H)-dione] |  | > 300 nM |  | 30 to 100 nM | 6.02 | < 5.52 | 6.11 | >0.2 10−6 cm/sec | 0.1 10−6 cm/sec | < 0.2 ×10⁻⁶ cm/s | > 120 min | < 5.8 µL/min/mg | < 6.52 | < 7.52 | 7.81 µL/min/mg | 88.7 min |  |  | microsomal CLint at 0.5 μM ([3]; mouse, liver microsomes, pH 7.4, Phase I only, read-out: Mouse LM-P1 CL): < 5.8 µL/min/mg; half-life at 0.5 μM ([3]; mouse, liver microsomes, pH 7.4, Phase I only, read-out: Mouse LM-P1 Half-life): > 120 min
CC(Cc1cc(F)ccc1F)Nc1cc[nH]c(=O)c1-c1nc2cc3c(cc2[nH]1)CN(C)C3=O (stereo not drawn) [Compound 33, 2-(4-(1-(2,5-Difluorophenyl)propan-2-ylamino)-2-oxo-1,2-dihydropyridin-3-yl)-6-methyl-6,7-dihydroimidazo[4,5-f]isoindol-5(1H)-one] | 17.7 nM | 24.7 nM | 0.74 nM | 5.13 nM | 6.06 | < 5.00 | 6.27 | 1.7 10−6 cm/sec | 1.4 10−6 cm/sec |  | 7.13 min | 97.2 µL/min/mg | 7.60 | 8.30 | 26.1 µL/min/mg | 26.6 min | 0.8 |  | pIC50 (RET): 7.74; pIC50 [5]: < 5.00; Efflux Ratio (Caco-2 cells): 0.5; pIC50 (ROS): 9.15; Mouse LM-P1 CL ([3]; Phase I only, 0.5 μM): 12.82 µL/min/mg
CC(Cc1cc(F)ccc1F)Nc1cc[nH]c(=O)c1-c1nc2cc3c(cc2[nH]1)C(=O)N(CC(O)CO)C3=O [Compound 34, 2-(4-(1-(2,5-Difluorophenyl)propan-2-ylamino)-2-oxo-1,2-dihydropyridin-3-yl)-6-(R)-2,3-dihydroxypropyl)imidazo[4,5-f]isoindole-5,7(1H,6H)-dione] |  | 13.8 nM and 4.71 nM |  | 6.97 nM and 3.7 nM | < 5.00 | < 5.00 | < 5.00 |  | 1.17 10−6 cm/sec |  | 33.6 min | 20.6 µL/min/mg | 7.85 | 8.15 | 9.16 µL/min/mg | 75.7 min | > 5.9 | 1.17 ×10⁻⁶ cm/s | 
CC(Cc1c(F)c(F)cc(F)c1F)Nc1cc[nH]c(=O)c1-c1nc2cc3c(cc2[nH]1)C(=O)N(C)C3=O (stereo not drawn) [Compound 41, 2-(4-(1-(2,3,5,6-Tetrafluorophenyl)propan-2-ylamino)-2-oxo-1,2-dihydropyridin-3-yl)-6-methylimidazo[4,5-f]isoindole-5,7(1H,6H)-dione] | > 10000 nM | > 10000 nM | 4.53 nM | > 10000 nM |  |  |  |  |  |  |  |  | < 5.00 | < 5.00 |  |  |  |  | pIC50 (RET): < 5.00; pIC50 (ROS): 8.30
CC(Cc1c(F)c(F)cc(F)c1F)Nc1cc[nH]c(=O)c1-c1nc2cc3c(cc2[nH]1)C(=O)N(C)C3 (stereo not drawn) [Compound 42, 6-Methyl-2-(2-oxo-4-(1-(2,3,5,6-tetrafluorophenyl)propan-2-ylamino)-1,2-dihydropyridin-3-yl)-6,7-dihydroimidazo[4,5-f]isoindole-5(1H)-one] |  | 17.5 nM |  | 7.27 nM | < 5.00 | < 5.00 | < 5.00 |  |  | 0.24 ×10⁻⁶ cm/s |  |  | 7.74 | 8.15 |  |  | 1 | 0.24 ×10⁻⁶ cm/s | IV_AUC0-1440 Rat 10 mpk [6]: 232 µg·min/mL; PO_AUC0-1440 Rat 10 mpk [6]: 5.48 µg·min/mL; bioavailability [6]: 2.36%
CC(Cc1c(F)c(F)cc(F)c1F)Nc1cc[nH]c(=O)c1-c1nc2cc3c(cc2n1C)CN(C)C3=O (stereo not drawn) [Compound 43, Trans-1,6-Dimethyl-2(2-oxo-4-(1-(2,3,5,6-tetrafluorophenyl)propan-2-ylamino)-1,2-dihydropyridin-3-yl)-6,7-dihydroimidazo[4,5-f]isoindol-5(1H)-one] |  | > 10000 nM |  | 9490 nM | < 5.00 | < 5.00 | < 5.00 |  |  |  |  |  | < 5.00 | 5.02 |  |  |  |  | 
CC(Cc1c(F)c(F)cc(F)c1F)Nc1cc[nH]c(=O)c1-c1nc2cc3c(cc2n1C)C(=O)N(C)C3 (stereo not drawn) [Compound 43a, Cis-1,6-Dimethyl-2(2-oxo-4-(1-(2,3,5,6-tetrafluorophenyl)propan-2-ylamino)-1,2-dihydropyridin-3-yl)-6,7-dihydroimidazo[4,5-J]isoindol-5(1H)-one] | > 10000 nM | > 10000 nM | 1200 nM | 6510 nM |  |  |  |  |  |  |  |  | < 5.00 | 5.19 |  |  |  |  | pIC50 (RET): < 5.00; pIC50 (ROS): 5.95
Cc1ccc(F)cc1CC(C)Nc1cc[nH]c(=O)c1-c1nc2cc3c(cc2[nH]1)CNC3=O (stereo not drawn) [Compound 52] |  |  |  |  |  |  |  | 5.0 10−6 cm/sec and 8.9 10−6 cm/sec | 10.2 10−6 cm/sec and 5.2 10−6 cm/sec | 9.3 ×10⁻⁶ cm/s | 2.51 min | 276 µL/min/mg |  |  | 134 µL/min/mg | 5.17 min |  | 7.4 ×10⁻⁶ cm/s | 
CC(Cc1cc(F)ccc1F)Nc1cc[nH]c(=O)c1-c1nc2cc3c(cc2[nH]1)CNC3=O (stereo not drawn) [Compound 53] | 16.9 nM | 34.1 nM | 1.88 nM | 7.81 nM |  |  |  | 0.76 10−6 cm/sec | 7.41 10−6 cm/sec | 1.25 ×10⁻⁶ cm/s | 8.68 min | 78 µL/min/mg |  |  | 25.3 µL/min/mg | 27.4 min | 6.6 | 8.24 ×10⁻⁶ cm/s | IV_AUC0-1440 Rat 10 mpk [6]: 531 µg·min/mL; PO_AUC0-1440 Rat 10 mpk [6]: 2.13 µg·min/mL; bioavailability [6]: 0.402%; Efflux Ratio (Caco-2 cells): 10.1
CC(C)NCC(O)COc1cccc2ccccc12 (stereo not drawn) [Propranolol, reference compound] |  |  |  |  |  |  |  |  |  |  |  |  |  |  |  |  |  |  | Pos Ctrl Recovery (Caco-2 cells; positive control, 10 μM): 63% and 58% and 26%
